Read-outs that look alike come from different tables or passages of the source.
Molecular target: T1, human GPR119 (Homo sapiens, UniProt Q8TDV5)
T1 sequence (Q8TDV5 1-308 limits assumed): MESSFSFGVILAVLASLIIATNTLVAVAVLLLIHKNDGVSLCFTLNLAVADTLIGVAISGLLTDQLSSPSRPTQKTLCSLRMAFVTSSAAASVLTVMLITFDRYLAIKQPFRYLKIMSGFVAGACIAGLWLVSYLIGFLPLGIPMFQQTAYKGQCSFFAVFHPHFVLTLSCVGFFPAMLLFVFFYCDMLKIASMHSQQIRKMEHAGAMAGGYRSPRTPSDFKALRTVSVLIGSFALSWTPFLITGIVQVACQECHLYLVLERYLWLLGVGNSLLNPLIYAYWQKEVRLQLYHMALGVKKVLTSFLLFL
Assay: Measurement of GPR119 signaling (cAMP assay) in cells stably transfected with human GPR119
Type: cell-based
Method: Measurement of GPR119 Signaling (Cyclic AMP (cAMP) Assay)
The adenylate cyclase assay was constructed following the LANCE™ cAMP Kit (Perkin Elmer, AD0264) instructions.
The reaction was stopped by incubating with the supplied detection buffer containing the europium chelate of the Eu-SA/Biotin-cAMP tracer for 3 hours. The assay was performed in duplicate in a 384 well plate for duplicate plates and fluorescence was measured at 665 nm. Basal activity was determined using a DMSO control and maximum response was defined as cAMP stimulation produced by an internal agonist control. Standard cAMP concentrations were assayed concurrently for conversion of fluorescence signal to cAMP level. The data was analyzed using 4-parameter curve fit in Microsoft Excel.
Measurement of GPR119 Signaling (cAMP Homogenous Time Resolved Fluorescence (HTRF) Assay)
Chinese hamster ovary (CHO) cell lines stably transfected with the permissive guanine nucleotide binding protein alpha 15 (Gα15) and murine GPR119 were maintained in DMEM media containing FBS, penicillin-streptomycin, puromycin, and G418 (geneticin). […] Agonist activation of the GPR119 receptor was measured in receptor transfected cells described above, treated with compounds of this invention, using a commercial homogenous time resolved fluorescence (HTRF) kit for measurement of cAMP (CisBio, Bedford, Mass.). The assay was performed in 96-well half-volume plates (murine) or 384-well plates (human) following the manufacturers instructions. Briefly, suspended cells were incubated with a dose titration of test compound at RT for 60 min, lysed, and incubated with HTRF reagents for an additional 60 min. The plate was read using an Envision multilabel reader (Perkin Elmer) adjusted to read time resolved fluorescence and the cAMP concentrations were extrapolated from a cAMP calibration curve. […] The concentration of test compound required to stimulate a half-maximal response (EC50), and efficacy as compared to an internal agonist control, was determined from a sigmoidal 4-parameter curve fit of the resulting plot of normalized activity versus compound concentration.

[1] = stated in the example text, cAMP stimulation, human GPR119, read-out: GPR119 Human EC50
[2] = table column, cAMP stimulation, human GPR119, read-out: GPR119 Human EC50
[3] = cAMP stimulation, read-out: GPR119 HumC EC50

For `COCc1noc(N2CCC([C@@H]3C[C@@H]3CCOc3ccc(S(C)(=O)=O)cc3F)CC2)n1` (stereo in doubt) [Example 220, 4-((1S,2R)-2-{2-[2-fluoro-4-(methylsulfonyl)phenoxy]ethyl}cyclopropyl)-1-[3-(methoxymethyl)-1,2,4-oxadiazol-5-yl]piperidine], which EC50 [1] is on record?
The EC50 was 0.9 nM.

How did the EC50 [2] turn out when `Cc1nc2c([nH]1)CN(C(=O)Cc1ccc(OCC[C@@H]3C[C@@H]3C3CCN(c4nc(C(C)C)no4)CC3)cc1F)C2` [Example 192] was run?
Its EC50 is 4.2 nM.

`CS(=O)(=O)c1ccc(OCC[C@@H]2C[C@@H]2C2CCN(C(=O)CC3CCCCC3)CC2)nc1` [Example 85, 2-(2-{(1S,2R)-2-[1-(cyclohexylacetyl)piperidin-4-yl]cyclopropyl}ethoxy)-5-(methylsulfonyl)pyridine] was tested. Which EC50 [1] did it give?
The EC50 was 11.8 nM.

With `CC(C)c1noc(N2CCC([C@H]3C[C@H]3CCOc3ccc(CC(=O)NC4CCCC4)c(F)c3)CC2)n1` [Example 156] as the molecule, how does the EC50 [2] read?
The EC50 was 5.4 nM.

`CC(C)c1noc(N2CCC([C@H]3C[C@H]3CCOc3ccc(CC(=O)N4CCOCC4)c(F)c3)CC2)n1` [Example 142] was tested. Which EC50 [2] did it give?
The EC50 was 0.84 nM.

How did the EC50 [2] turn out when `O=C(c1c(F)cc(OCC[C@@H]2C[C@@H]2C2CCN(C(=O)OCc3ccccc3)CC2)cc1F)C1CC1` [Example 53] was run?
Its EC50 is 18 nM.

Which EC50 [1] does the source give for `O=C(c1c(F)cc(OCC[C@@H]2C[C@@H]2C2CCN(c3nc4ncccn4n3)CC2)cc1F)C1CC1` [Example 251] here?
Its EC50 is 6 nM.

Which EC50 [1] does the source give for `CC(C)c1noc(N2CCC([C@H]3C[C@H]3CCOc3cc(F)c(CC(=O)N4CC(O)C4)c(F)c3)CC2)n1` [Example 108, 1-[(2,6-difluoro-4-{2-[(1S,2R)-2-{1-[3-(1-methylethyl)-1,2,4-oxadiazol-5-yl]piperidin-4-yl}cyclopropyl]ethoxy}phenyl)acetyl]azetidin-3-ol] here?
Its EC50 is 0.96 nM.

How did the EC50 [2] turn out when `CC(C)COC(=O)N1CCC([C@H]2C[C@H]2CCOc2ccc(S(C)(=O)=O)cn2)CC1` [Example 19] was run?
Its EC50 is 12 nM.

With `CC(C)c1noc(N2CCC([C@H]3C[C@H]3CCOc3ccc(CC(=O)N4CC(n5ccnc5)C4)c(F)c3)CC2)n1` [Example 188] as the molecule, how does the EC50 [2] read?
Its EC50 is 6.4 nM.

Which EC50 [1] does the source give for `CC(C)OC(=O)N1CCC([C@H]2C[C@H]2CCOc2cc(F)c(C(=O)C3CC3)c(F)c2)CC1` [Example 51] here?
The EC50 was 0.8 nM.

For `Cc1nnc(-c2ccc(OCC[C@@H]3C[C@@H]3C3CCN(C(=O)OC(C)(C)C)CC3)cc2F)o1` [Example 50], which EC50 (unit inferred, read-out: GPR119 Human EC50) is on record?
Its EC50 is 1.8 nM.

With `CS(=O)(=O)c1ccc(OCC[C@@H]2C[C@@H]2C2CCN(c3nnc(C4CCC4)o3)CC2)nc1` [Example 248] as the molecule, how does the EC50 [2] read?
Its EC50 is 39 nM.

How did the EC50 [2] turn out when `CC(C)c1noc(N2CCC([C@H]3C[C@H]3CCOc3ccc(S(C)(=O)=O)nc3)CC2)n1` [Example 130] was run?
Its EC50 is 10.6 nM.

How did the EC50 [3] turn out when `CC(C)c1noc(N2CCC([C@H]3C[C@H]3CCOc3cc(F)c(CC(=O)N4CC(F)C4)c(F)c3)CC2)n1` [Example 110] was run?
The EC50 was 0.12 nM.

For `CC1(OC(=O)N2CCC([C@H]3C[C@H]3CCOc3ccc(CC(=O)N4CCCC4)cc3)CC2)CC1` [Example 56], which EC50 [1] is on record?
Its EC50 is 4.7 nM.

Which EC50 [2] does the source give for `CC(C)c1noc(N2CCC([C@H]3C[C@H]3CCOc3ccc(CC(=O)N(C)CC4CCC(=O)N4)c(F)c3)CC2)n1` (some centres unmarked) [Example 170] here?
The EC50 was 7.9 nM.

For `CC(C)c1noc(N2CCC([C@H]3C[C@H]3CCOc3ccc(CC(=O)N4CCc5cncnc5C4)c(F)c3)CC2)n1` [Example 175], which EC50 [2] is on record?
The EC50 was 3.2 nM.

How did the EC50 [2] turn out when `CC(C)c1noc(N2CCC([C@H]3C[C@H]3CCOc3ccc(CC(=O)N4CCCC4)c(F)c3)CC2)n1` [Example 146] was run?
The EC50 was 1.2 nM.

For `CC(C)c1noc(N2CCC([C@H]3C[C@H]3CCOc3ccc(CC(=O)NC4CCC4)c(F)c3)CC2)n1` [Example 151], which EC50 [2] is on record?
Its EC50 is 3.2 nM.

Which EC50 [2] does the source give for `COCc1noc(N2CCC([C@H]3C[C@H]3CCOc3ccc(-n4cncn4)cc3)CC2)n1` [Example 223] here?
The EC50 was 7.2 nM.

How did the EC50 [2] turn out when `CCOC(=O)N1CCC([C@H]2C[C@H]2CCOc2ccc(-n3cnnn3)cc2)CC1` [Example 6] was run?
The EC50 was 2 nM.

`CS(=O)(=O)c1ccc(OCC[C@@H]2C[C@@H]2C2CCN(C(=O)CC3CCCC3)CC2)nc1` [Example 88] was tested. Which EC50 [2] did it give?
The EC50 was 4.6 nM.

How did the EC50 [2] turn out when `CCCc1noc(N2CCC([C@H]3C[C@H]3CCOc3ccc(S(C)(=O)=O)cn3)CC2)n1` [Example 211] was run?
The EC50 was 8 nM.

`Cc1nc(C#N)cc(OCC[C@@H]2C[C@@H]2C2CCN(C(=O)OCC(C)C)CC2)n1` [Example 48] was tested. Which EC50 [2] did it give?
Its EC50 is 1 nM.

`Cc1nc(C#N)cc(OCC[C@@H]2C[C@@H]2C2CCN(C(=O)OC(C)C)CC2)n1` [Example 46] was tested. Which EC50 [2] did it give?
The EC50 was 1.2 nM.

`CC(C)c1noc(N2CCC([C@H]3C[C@H]3CCOc3ccc(CC(=O)N4CC(O)(C(F)(F)F)C4)c(F)c3)CC2)n1` [Example 186] was tested. Which EC50 [2] did it give?
Its EC50 is 2.6 nM.

For `CC(C)c1noc(N2CCC([C@H]3C[C@H]3CCOc3ccc(CC(=O)N4C[C@@H](F)[C@H](F)C4)cc3)CC2)n1` [Example 127], which EC50 [2] is on record?
Its EC50 is 1.1 nM.

For `Cc1noc(N2CCC([C@H]3C[C@H]3CCOc3ccc(S(C)(=O)=O)cn3)CC2)n1` [Example 213], which EC50 [2] is on record?
Its EC50 is 11 nM.

For `CN(C)C(=O)Cc1cc(F)c(OCC[C@@H]2C[C@@H]2C2CCN(C(=O)OC3(C)CC3)CC2)cc1F` [Example 62, 1-methylcyclopropyl 4-[(1R,2S)-2-(2-{4-[2-(dimethylamino)-2-oxoethyl]-2,5-difluorophenoxy}ethyl)cyclopropyl]piperidine-1-carboxylate], which EC50 (stated in the example text without 'GPR119', read-out: Human EC50) is on record?
Its EC50 is 2.2 nM.

For `O=C(c1c(F)cc(OCC[C@@H]2C[C@@H]2C2CCN(c3nc4cnccn4n3)CC2)cc1F)C1CC1` [Example 252], which EC50 [2] is on record?
The EC50 was 4.1 nM.

Which EC50 [2] does the source give for `CC(C)c1noc(N2CCC([C@H]3C[C@H]3CCOc3ccc(CC(=O)N(C)CC4CCC(=O)N4C)c(F)c3)CC2)n1` (some centres unmarked) [Example 169] here?
The EC50 was 7.7 nM.

With `CS(=O)(=O)c1ccc(OCC[C@@H]2C[C@@H]2C2CCN(C(=O)CC3CC4C=CC3C4)CC2)nc1` (some centres unmarked) [Example 90] as the molecule, how does the EC50 [2] read?
The EC50 was 16 nM.

Which EC50 [2] does the source give for `COCc1noc(N2CCC([C@H]3C[C@H]3CCOc3ccc(CC(=O)N4CCC[C@@H]4C(F)(F)F)c(F)c3)CC2)n1` [Example 203] here?
Its EC50 is 5.1 nM.

`CC1(OC(=O)N2CCC([C@H]3C[C@H]3CCOc3ccc(S(=O)(=O)C4CC4)cc3)CC2)CC1` [Example 37] was tested. Which EC50 [2] did it give?
The EC50 was 16 nM.

With `COCCc1noc(N2CCC([C@H]3C[C@H]3CCOc3ccc(S(C)(=O)=O)cn3)CC2)n1` [Example 216] as the molecule, how does the EC50 [2] read?
Its EC50 is 26 nM.

Which EC50 [2] does the source give for `O=C(CC1(c2ccccc2)CCC1)N1CCC([C@H]2C[C@H]2CCOc2ccc(-n3cnnn3)cc2)CC1` [Example 83] here?
The EC50 was 15 nM.

How did the EC50 [3] turn out when `O=C(Cc1ccc(OCC[C@@H]2C[C@@H]2C2CCN(C(=O)OCC3CCC3)CC2)cc1F)N1CCC1` [Example 73] was run?
Its EC50 is 2.2 nM.

With `CC(C)c1noc(N2CCC([C@H]3C[C@H]3CCOc3cc(F)c(CC(=O)N(C)C)cc3F)CC2)n1` [Example 75] as the molecule, how does the EC50 [3] read?
Its EC50 is 0.6 nM.

`CS(=O)(=O)c1ccc(OCC[C@@H]2C[C@@H]2C2CCN(c3nc(C4CC4)no3)CC2)nc1` [Example 210] was tested. Which EC50 [2] did it give?
The EC50 was 6 nM.

With `CC(C)c1noc(N2CCC([C@H]3C[C@H]3CCOc3ccc(CC(=O)N4CCn5ncnc5C4)c(F)c3)CC2)n1` [Example 195] as the molecule, how does the EC50 [2] read?
The EC50 was 1.6 nM.

For `CC(C)c1noc(N2CCC([C@H]3C[C@H]3CCOc3ccc(CC(=O)N(C)C4CCOC4)c(F)c3)CC2)n1` (some centres unmarked) [Example 161], which EC50 [2] is on record?
The EC50 was 1.1 nM.

With `COC(C)c1noc(N2CCC([C@H]3C[C@H]3CCOc3ncc(-n4cnnn4)cc3C)CC2)n1` (some centres unmarked) [Example 227] as the molecule, how does the EC50 [2] read?
The EC50 was 0.9 nM.

Which EC50 [2] does the source give for `CC(C)OC(=O)N1CCC([C@H]2C[C@H]2CCOc2ccc(-n3cnnn3)cc2)CC1` [Example 11] here?
The EC50 was 1.5 nM.

With `CC(C)c1noc(N2CCC([C@H]3C[C@H]3CCOc3ccc(CC(=O)N(C)C4(C)CCCC4)c(F)c3)CC2)n1` [Example 165] as the molecule, how does the EC50 [2] read?
The EC50 was 8.1 nM.

Which EC50 [2] does the source give for `CC(C)c1noc(N2CCC([C@H]3C[C@H]3CCOc3ccc(CC(=O)N(C)Cc4cscn4)c(F)c3)CC2)n1` [Example 166] here?
Its EC50 is 2.6 nM.

Which EC50 [1] does the source give for `Cc1cc(CC(=O)N2CC(F)C2)cnc1OCC[C@@H]1C[C@@H]1C1CCN(c2nc(C(C)C)no2)CC1` [Example 258, 5-[2-(3-fluoroazetidin-1-yl)-2-oxoethyl]-2-(2-{(1S,2R)-2-[1-(3-isopropyl-1,2,4-oxadiazol-5-yl)piperidin-4-yl]cyclopropyl}ethoxy)-3-methylpyridine] here?
The EC50 was 8 nM.

— US8957062B2, “Substituted cyclopropyl compounds, compositions containing such compounds and methods of treatment” (Merck Sharp & Dohme Corp., priority 2011, dated 2015)
